How the values were obtained:
[1] = test system: mitochondrial membrane potential of S. cerevisiae; assay: Secondary mitochondrial disruption assay (JC-1 dye, flow cytometry); format: cell-based, Saccharomyces cerevisiae; conditions: living S. cerevisiae treated with 1 μM compound; AIDs 624062, 624068
Protocol: Procedures • Use a Thermo Combi nL to dispense 20 μL/well of assay media into all wells. • Add 2 μL of Amphotericin B to control wells. • Pin 100 nL of test compound from compound plates into assay plates using a CyBi-Well pin tool. • Dispense 20 μL/well of culture into the assay media in all wells. • Incubate the plates in a humidified (90% humidity) Liconic incubator at 37° C. without agitation for 48 hours. • Shake plates briefly. • Read OD600 of wells on a standard plate reader as measure of relative fungal growth. Envision (Perkin Elmer) plate reader settings: Ex Photometric 600, Top read. 4.5. Secondary Mitochondrial Disruption Assay (AID No. 624062 and 624068)
The fluorescent dye JC-1 was used to quantify the ability of compounds to disrupt the mitochondrial membrane potential of fungi. Mitochondrial membrane depolarization is indicated by a decrease in the yellow/green fluorescence intensity ratio. This is a non-gating, binning assay that establishes whether inhibition of fungal growth in glycerol results from direct compromise of mitochondrial function or alternative components of fungal respiratory metabolism. Probes that disrupt mitochondrial function as well as those that perturb other metabolic components are desirable. […]
Additionally, direct impairment of mitochondrial function in C. glabrata and S. cerevisiae was assessed using a fluorescence assay.

[2] = molecular target: S. cerevisiae cytochrome bc1 complex (Saccharomyces cerevisiae, UniProt P00163); conditions: cited from earlier work

SMILES | Depolarization of the mitochondrial membrane (JC-1 dye) [1] | Selectivity for S. cerevisiae (fungal) bc1 complex over bovine bc1 complex ([2]; biochemical assays with purified proteins, literature) | IC50 ([2]; read-out: IC50, purified S. cerevisiae cytochrome bc1 complex, studies by Trumpower et al.)
CCOC(=O)N1C(=O)C2(CCCCC2)N(c2ccc(F)cc2)C1=S [CID 56604860, Ethyl 1-(4-fluorophenyl)-4-oxo-2-thioxo-1,3-diazaspiro[4.5]decane-3-carboxylate] | depolarization of the mitochondrial membrane does not occur | – | –
C/C=C/C1[C@H]2C[C@@H](C)CC[C@@H]2C(C)=C[C@H]1C(=O)c1c(O)c(-c2ccc(O)cc2)c[nH]c1=O (stereo partly drawn) [ilicicolin H, reference compound] | – | 100 fold | 3 nM
